{"source": "paper PMC10791652", "about": "“The adhesion GPCR GPR116/ADGRF5 has a dual function in pancreatic islets regulating somatostatin release and islet development” (Communications Biology, 2024)", "key": {"[1]": {"system": "endogenous purinergic receptors", "assay": "Fura-2 Ca2+ imaging in HEK293T cells (ATP control)", "format": "cell-based", "conditions": "100 µM ATP", "method": "(§1) Fura-2-based Ca^2+ imaging was performed in transfected HEK293T cells (Supplementary Experimental Procedures) and intact pancreatic islets using a monochromator-based imaging system, and the imaging software TILLvisION 4.0 (T.I.L.L. Photonics). Emitted fluorescence (excited at 340 and 380 nm) was acquired at intervals of 2 seconds and corrected for background fluorescence. HEK293T cells and islets were loaded with 5 µM fura-2 AM in standard bath solution containing 140 mM NaCl, 10 mM HEPES, 5 mM KCl, 2 mM CaCl2, 1 mM MgCl2, and 3 mM glucose for 30 or 60 min. HEK293T cells (25,000 cells/well) were seeded into 24-well plates on poly-L-lysine coated glass cover slips and were transiently transfected with plasmids encoding for GPR116 and GFP the next day. Ca^2+ imaging was carried out 72 h post transfection. HEK293T cells were exposed to p116sc, p116 (1 mM each), and ATP (100 µM) in standard bath solution. Pancreatic mouse islets (3 - 4 islets per coverslip) were transferred one day after preparation into 12-well plates on poly-L-lysine coated glass cover slips. 48 h after seeding islets were exposed to 1 mM p116sc, 1 mM p116, and 100 µM carbachol (CCh) in standard bath solution."}, "[2]": {"system": "mock-transfected HEK293T cells", "assay": "Fura-2 Ca2+ imaging in mock-transfected HEK293T cells", "format": "cell-based", "conditions": "1 mM peptide or 100 µM ATP", "method": "as §1"}, "[3]": {"system": "muscarinic acetylcholine receptors", "assay": "Fura-2 Ca2+ imaging in intact pancreatic islets (carbachol positive control)", "format": "cell-based, mouse", "conditions": "100 µM carbachol, fura-2 ratio F340/F380", "method": "as §1"}, "Gαq/11 protein": {"system": "Gαq/11 protein", "assay": "Somatostatin secretion from islets after pre-incubation with Gq inhibitor", "format": "cell-based, mouse", "conditions": "pre-incubation with FR900359, then 2 mM p116, high glucose, 30 min", "method": "Equilibration of five islets was performed in KRB containing 2.8 mM glucose for 30 min at 37 °C in 96-well plates. If not mentioned otherwise, islets were stimulated with peptide solution or respective controls in KRB for 30 min at 37 °C. Islets were lysed with acid ethanol and supernatant as well as lysates kept frozen at −20 °C until measurement. To measure insulin the AlphaLISA technology (Perkin Elmer) was used according to the manufacturer’s protocol in 384-well OptiPlate microplates (Perkin Elmer) with the EnVision Multilabel Reader (Perkin Elmer). Somatostatin amounts were determined using either AlphaLISA (Perkin Elmer) or ELISA (Phoenix Pharmaceuticals). For reliable measurement protocol adaptions were necessary. For AlphaLISA these were as follows: increasing sample volumes to 35 µl/well, reduced bead volume of 5 µl/well, and an extended incubation period with donor beads of 90 min. For the ELISA measurement the sample incubation time was extended to over-night and the biotinylated peptide was diluted 1:5 to achieve reliable results."}, "[4]": {"system": "growth hormone secretagogue receptor/ghrelin (GHS-R) receptor", "assay": "Fura-2 Ca2+ imaging in intact pancreatic islets (ghrelin)", "format": "cell-based, mouse", "conditions": "300 nM ghrelin"}}, "note": "Numbered stars: 1 amine (or outer) side, 2 acyl side, 3 side chain; on linkers, the order of the positions; unused ones are H or OH. Bridge positions count the residues as written; N and C are the ends. Square brackets hold non-standard residues; d marks the D form. Ends that are not written are not given here. Peptide text beside a SMILES is read from it. * marks the point of attachment. Leu(3R-OH,Nα-propionyl) = CCC(=O)N[C@H](C(=O)*)[C@H](O)C(C)C; X1 = CC(C)[C@@H](O[*:3])[C@H](N[*:1])C(=O)[*:2]; NMeT = CN[C@H](C(=O)O)[C@@H](C)O; dPhLac = O=C(O)[C@H](O)Cc1ccccc1; NMeA = CN[C@@H](C)C(=O)O; NMeDha = C=C(NC)C(=O)O"}
{"compound": "Nc1ncnc2c1ncn2[C@@H]1O[C@H](COP(=O)(O)OP(=O)(O)OP(=O)(O)O)[C@@H](O)[C@H]1O", "note": "[ATP]", "values": [{"measurement": "intracellular Ca2+ transients in GPR116-transfected HEK293T cells", "setting": "[1]", "value": "induced"}, {"measurement": "intracellular Ca2+ response in mock-transfected cells", "setting": "[2]", "value": "strongly increased intracellular Ca2+ levels"}]}
{"compound": "C[N+](C)(C)CCOC(N)=O", "note": "[CCh, carbachol]", "values": [{"measurement": "Ca2+ response in pancreatic islets", "setting": "[3]", "value": "strong Ca^2+ elevation"}]}
{"compound": "C=C1C(=O)N[C@@H](C)C(=O)N(C)[C@@H](C)C(=O)N[C@@H]([C@H](OC(=O)[C@@H](NC(=O)CC)[C@H](O)C(C)C)C(C)C)C(=O)N(C)[C@@H]([C@@H](C)OC)C(=O)O[C@H](C(C)C)[C@H](NC(C)=O)C(=O)O[C@H](Cc2ccccc2)C(=O)N1C", "note": "[FR900359] (Ac-[X1][dPhLac][NMeDha]A[NMeA][X1](Leu(3R-OH,Nα-propionyl))[NMeT](Me); ester 1-C)", "values": [{"measurement": "effect of Gq inhibitor on p116-induced somatostatin secretion", "setting": "Gαq/11 protein", "value": "completely abolished somatostatin secretion"}]}
{"compound": "ghrelin (GSSFLSPEHQRVQQRKESKKPPAKLQP; ends and bridges not checked; UniProt Q9UBU3 24-50, looked up)", "values": [{"measurement": "Ca2+ response in insulin-expressing beta cells of islets", "setting": "[4]; MIP-GFP mouse islets, EGFP-positive regions", "value": "absent in insulin-expressing beta cells"}, {"measurement": "Ca2+ response in pancreatic islets", "setting": "[4]; then 1 mM p116, MIP-GFP mouse islets", "value": "elicited Ca^2+ signals with partially overlapping localization"}]}
